Where a name gives a salt, the structure may show the parent alone.
Biological target: T1, IP receptor (Homo sapiens, UniProt P43119)
T1 construct: one million cells in 160 μl aliquot of cell suspension were put in a well of 96 well plate; host or cells: HEL 92.1.7 human erythroleukemia cells (whole cells)
Assay: IP receptor binding/cAMP in HEL cells ([3H]-iloprost binding, Assay 1; iloprost-induced cAMP production, Assay 2)
Conditions: compounds of about 40 to 90% purity, read-out: In vitro activity grade (IC50 class)
Protocol: [Measurement of the [^3H]-iloprost Binding to HEL Cells] (Assay 1)
A human erythloleukemia cell line, HEL 92.1.7, was purchased from American Type Culture Correction and maintained in RPMI-1640 medium (Gibco BRL) supplemented with 10% fetal calf serum (FCS), 2 mM glutamine, 4.5 g/L glucose, 10 mM Hepes, 1 mM sodium pyruvate, 100 U/ml penicillin, and 100 μg/ml streptomycin in a humidified 5% CO2 atmosphere at 37° C. Cells were collected with centrifugation and washed with binding assay buffer (BAB: 50 mM Tris-HCl, 5 mM MgCl2 (pH 7.5)). Cells were suspended at the density of 6.25×10^6 cells/ml in BAB, and one million cells in 160 μl aliquot of cell suspension were put in a well of 96 well plate (Falcon). Then, 20 μl of compound solution, 100 μM of iloprost (for non-specific binding), or buffer alone (total binding), diluted with 1% DMSO in BAB was added. Finally, another 20 μl containing [^3H]-iloprost (0.02 μCi, 0.5-1 pmol) in BAB was added and incubated at room temperature for 30 min with a gentle shaking. Cell suspension was then transferred to a well of MultiScreen plate with GF/C glass filters (Millipore) to harvest cells. Cells were washed twice with 200 μl of ice-cold BAB and the plate was kept at 55° C. for 30 min to dry filters. The filter in the well was punched out to a counting tube and 2 ml of Ultima Gold XR (Packard) was added. [^3H]-radio activity in the filter was measured by a liquid scintillation counter (Beckman, USA).
[Iloprost-Induced cAMP Production Assay in HEL Cells] (Assay 2)
HEL cells were collected with centrifugation and washed with cAMP assay buffer (CAB: Hank's balanced salt solution, 17 mM Hepes, 0.1% bovine serum albumin, 1 mM IBMX, 0.4% DMSO, and 1 mM L-ascorbic acid sodium salt (pH 7.4)). Cells were suspended at the density of 2.5×10^5 cells/ml in CAB, and twenty thousand cells in 80 μl aliquot of cell suspension were put in a well of 96 well plate (Falcon). Then, 10 μl of compound solution diluted with 1% DMSO in CAB or buffer alone was added. The plate was incubated at 37° C. for 30 min. Then, another 10 μl containing 100 nM iloprost in CAB or buffer alone was added and further incubated at 37° C. for 30 min. cAMP content in the well was measured by a cAMP ELISA kit (Applied Biosystems, USA).
The data corresponds to the compounds as yielded by solid phase synthesis and thus to levels of purity of about 40 to 90%. For practical reasons, the compounds are grouped in three classes of activity as follows: IC50=A<0.1 μM≦B<1 μM≦C

T1 sequence (P43119 whole entry): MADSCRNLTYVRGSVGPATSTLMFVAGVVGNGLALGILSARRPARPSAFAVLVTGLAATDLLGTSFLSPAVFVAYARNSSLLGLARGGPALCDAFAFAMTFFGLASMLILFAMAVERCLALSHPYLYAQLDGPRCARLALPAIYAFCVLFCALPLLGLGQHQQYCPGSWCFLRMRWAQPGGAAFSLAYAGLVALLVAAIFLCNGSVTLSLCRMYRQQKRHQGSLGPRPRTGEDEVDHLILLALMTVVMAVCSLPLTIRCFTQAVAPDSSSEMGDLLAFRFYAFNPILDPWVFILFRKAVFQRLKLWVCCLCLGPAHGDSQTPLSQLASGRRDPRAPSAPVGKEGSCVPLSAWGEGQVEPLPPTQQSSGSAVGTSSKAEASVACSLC

| SMILES | IC50 |
| --- | --- |
| O=C(O)[C@@H](Cc1ccccc1)Nc1cc(-c2ccc(OCc3ccccc3)cc2)ncn1 [Example 1-1, N-{6-[4-(Benzyloxy)phenyl]pyrimidin-4-yl}-D-phenylalanine] | < 0.1 µM |
| CCCC[C@@H](Nc1cc(-c2ccc(OCc3ccccc3)cc2)ncn1)C(=O)O [Example 1-3, N-{6-[4-(benzyloxy)phenyl]pyrimidin-4-yl}-D-norleucine hydrochloride] | < 0.1 µM |
| O=C(O)C(Cc1ccccc1)Nc1cc(-c2ccc(OCc3ccccc3)cc2)nc(Cl)n1 (stereo not drawn) [Example 1-21] | < 0.1 µM |
| O=C(O)C(Cc1c[nH]c2ccccc12)Nc1cc(-c2ccc(OCc3ccccc3)cc2)ncn1 (stereo not drawn) [Example 1-37] | < 0.1 µM |
| Nc1nc(NC(Cc2ccccc2)C(=O)O)cc(-c2ccc(OCc3ccccc3)cc2)n1 (stereo not drawn) [Example 1-38] | < 0.1 µM |
| O=C(O)C(Cc1ccccc1)Nc1cc(-c2ccccc2)ncn1 (stereo not drawn) [Example 1-51] | 0.1 to 1 µM |
| O=C(O)C(Cc1ccccc1)Nc1cc(-c2ccc(F)cc2)ncn1 (stereo not drawn) [Example 1-52] | 0.1 to 1 µM |
| O=C(O)C(Cc1ccccn1)Nc1cc(-c2ccc(-c3ccccc3)cc2)ncn1 (stereo not drawn) [Example 1-53] | < 0.1 µM |
| CSc1nc(NC(Cc2ccccc2)C(=O)O)cc(-c2ccc(OCc3ccccc3)cc2)n1 (stereo not drawn) [Example 1-54] | 0.1 to 1 µM |
| O=C(O)C(Cc1ccccc1)Nc1cc(-c2ccc(Cl)cc2)ncn1 (stereo not drawn) [Example 1-55] | 0.1 to 1 µM |
| CCOc1ccc(-c2cc(NC(Cc3ccccc3)C(=O)O)ncn2)cc1 (stereo not drawn) [Example 2-18] | < 0.1 µM |
| CCCOc1ccc(-c2cc(NC(Cc3ccccc3)C(=O)O)ncn2)cc1 (stereo not drawn) [Example 2-19] | < 0.1 µM |
| COc1cccc(COc2ccc(-c3cc(NC(Cc4ccccn4)C(=O)O)ncn3)cc2)c1 (stereo not drawn) [Example 2-36] | < 0.1 µM |
| COc1cc(COc2ccc(-c3cc(NC(Cc4ccccn4)C(=O)O)ncn3)cc2)cc(OC)c1 (stereo not drawn) [Example 2-37] | < 0.1 µM |
| O=C(O)C(Cc1ccccc1)Nc1cc(-c2ccc(OCC3CC3)c(F)c2)ncn1 (stereo not drawn) [Example 2-41] | < 0.1 µM |
| CCCCC(Nc1cc(-c2ccc(OCC3CC3)c(F)c2)ncn1)C(=O)O (stereo not drawn) [Example 2-42] | 0.1 to 1 µM |
| O=C(O)C(Cc1ccccn1)Nc1cc(-c2ccc(OCC3CC3)c(F)c2)ncn1 (stereo not drawn) [Example 2-43] | 0.1 to 1 µM |
| O=C(O)[C@H](Cc1ccccc1)Nc1ccnc(-c2ccc(OCc3ccccc3)cc2)n1 [Example 3-1, N-{2-[4-(Benzyloxy)phenyl]-4-pyrimidinyl}phenylalanine] | 0.1 to 1 µM |
| O=C(O)C(Cc1cccc(OCCN2CCOCC2)c1)Nc1cc(-c2ccc(OCc3ccccc3)cc2)ncn1 (stereo not drawn) [Example 4-2] | < 0.1 µM |
| O=C(O)[C@H](Cc1ccc(NC2=NCCN2)cc1)Nc1cc(-c2ccc(OCc3ccccc3)cc2)ncn1 [Example 6-1, N-{6-[4-(Benzyloxy)phenyl]pyrimidin-4-yl}-4-(4,5-dihydro-1H-imidazol-2-yl-amino)phenylalanine] | < 0.1 µM |
| O=C(O)C(Cc1ccccc1)Nc1cc(-c2ccc(CCc3ccccc3)cc2)ncn1 (stereo not drawn) [Example 8-1, N-{6-[4-(2-Phenylethyl)phenyl]pyrimidinyl}phenylalanine] | < 0.1 µM |
| COc1ccc(-c2ccc(-c3cc(N[C@@H](Cc4ccccc4)C(=O)O)ncn3)cc2)cc1 [Example 11-1, N-[6-(4′-Methoxybiphenyl-4-yl)pyrimidin-4-yl]phenylalanine] | < 0.1 µM |
| O=C(O)C(Cc1ccccc1)Nc1cc(-c2ccc(-c3ccc(-c4ccccc4)cc3)cc2)ncn1 (stereo not drawn) [Example 11-8] | > 1 µM |
| N#Cc1ccnc(Oc2ccc(-c3cc(N[C@@H](Cc4ccccc4)C(=O)O)ncn3)cc2)c1 [Example 12-1, N-(6-{4-[(4-cyanopyridin-2-yl)oxy]phenyl}pyrimidin-4-yl)phenylalanine] | < 0.1 µM |
| O=C(O)C(Cc1ccccc1)Nc1cc(-c2ccc(Oc3ncc(C(F)(F)F)cc3Cl)cc2)ncn1 (stereo not drawn) [Example 12-2] | > 1 µM |
| O=C(O)C(Cc1ccccc1)Nc1cc(-c2ccc(Oc3cc(C(F)(F)F)ncn3)cc2)ncn1 (stereo not drawn) [Example 12-3] | 0.1 to 1 µM |
| Cc1ccc(C#N)c(Oc2ccc(-c3cc(NC(Cc4ccccc4)C(=O)O)ncn3)cc2)n1 (stereo not drawn) [Example 12-4] | > 1 µM |

From US20060089371A1, “Phenyl or heteroaryl amino alkane derivatives as ip receptor antagonist” (Bayer HealthCare AG, priority 2002, published 2006)
